The record followed here is PMC7044277 (Nature Communications, 2020).

“And” between values parts separate entries of the source, which are not always exact repeats. Identical values can stand only once.

Common to all, as to assay type: cell-based
Test [1] addresses T1, 320 non-olfactory GPCRs (Homo sapiens, UniProt Q99705).
T1 construct: expressed in transfected cells; host or cells: HTLA cells
Particulars: receptor MCHR1R; replicate values, Fig_4g.

The target of test [2] is T2, 320 non-olfactory GPCRs (Homo sapiens, UniProt Q9HB89).
T2 construct: expressed in transfected cells; host or cells: HTLA cells
T2 sequence (Q9HB89 whole entry): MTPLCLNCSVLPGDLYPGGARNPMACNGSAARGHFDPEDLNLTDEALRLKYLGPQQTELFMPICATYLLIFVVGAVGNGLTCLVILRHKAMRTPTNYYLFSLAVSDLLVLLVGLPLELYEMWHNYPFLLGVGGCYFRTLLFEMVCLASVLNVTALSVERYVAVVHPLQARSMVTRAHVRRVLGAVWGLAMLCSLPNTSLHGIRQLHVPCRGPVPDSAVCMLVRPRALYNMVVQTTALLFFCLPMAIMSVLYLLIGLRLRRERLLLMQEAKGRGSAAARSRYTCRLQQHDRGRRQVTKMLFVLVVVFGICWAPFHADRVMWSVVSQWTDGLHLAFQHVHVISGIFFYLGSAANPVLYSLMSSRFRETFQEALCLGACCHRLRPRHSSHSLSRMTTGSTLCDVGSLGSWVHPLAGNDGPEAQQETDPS
As to conditions: receptor NMUR1; replicate values, Fig_4g.

Test [3] deals with T3, 320 non-olfactory GPCRs (Homo sapiens, UniProt P25929).
T3 construct: expressed in transfected cells; host or cells: HTLA cells
T3 sequence (P25929 whole entry): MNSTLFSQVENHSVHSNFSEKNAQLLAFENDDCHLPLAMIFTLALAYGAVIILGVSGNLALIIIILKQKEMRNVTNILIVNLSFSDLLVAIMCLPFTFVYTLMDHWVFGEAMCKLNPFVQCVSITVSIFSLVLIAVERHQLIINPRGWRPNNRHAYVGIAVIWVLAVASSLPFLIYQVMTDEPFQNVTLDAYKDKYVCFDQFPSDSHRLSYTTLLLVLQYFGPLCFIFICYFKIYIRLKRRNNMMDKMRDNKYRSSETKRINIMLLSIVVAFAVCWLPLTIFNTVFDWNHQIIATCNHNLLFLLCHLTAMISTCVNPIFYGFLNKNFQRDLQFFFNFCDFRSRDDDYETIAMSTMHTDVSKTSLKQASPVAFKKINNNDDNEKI
Particulars: receptor NPY1R; replicate values, Fig_4g.

Test [4] concerns the target T4, 320 non-olfactory GPCRs (Homo sapiens, UniProt P20309).
T4 construct: expressed in transfected cells; host or cells: HTLA cells
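For Fold of Basal in this document: compound tested at 1 µM final concentration.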
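For GPCRome agonism screen response in this document: fold over basal response of each receptor without drug.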

T4 sequence (P20309 whole entry): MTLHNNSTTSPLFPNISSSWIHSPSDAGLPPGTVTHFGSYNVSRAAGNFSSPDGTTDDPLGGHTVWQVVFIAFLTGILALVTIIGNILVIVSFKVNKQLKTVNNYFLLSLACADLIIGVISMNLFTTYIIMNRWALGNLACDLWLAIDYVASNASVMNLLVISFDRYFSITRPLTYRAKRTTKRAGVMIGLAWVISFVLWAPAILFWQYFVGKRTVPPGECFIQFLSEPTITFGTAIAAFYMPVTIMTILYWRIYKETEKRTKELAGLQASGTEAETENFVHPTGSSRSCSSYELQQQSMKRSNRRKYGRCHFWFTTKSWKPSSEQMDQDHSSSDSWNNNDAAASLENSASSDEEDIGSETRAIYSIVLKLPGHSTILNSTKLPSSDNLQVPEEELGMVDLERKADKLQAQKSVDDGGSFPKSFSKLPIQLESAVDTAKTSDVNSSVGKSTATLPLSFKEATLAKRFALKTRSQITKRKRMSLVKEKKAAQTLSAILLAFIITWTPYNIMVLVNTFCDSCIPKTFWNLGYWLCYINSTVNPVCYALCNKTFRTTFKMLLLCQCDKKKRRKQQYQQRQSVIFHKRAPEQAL
T1 sequence (Q99705 whole entry): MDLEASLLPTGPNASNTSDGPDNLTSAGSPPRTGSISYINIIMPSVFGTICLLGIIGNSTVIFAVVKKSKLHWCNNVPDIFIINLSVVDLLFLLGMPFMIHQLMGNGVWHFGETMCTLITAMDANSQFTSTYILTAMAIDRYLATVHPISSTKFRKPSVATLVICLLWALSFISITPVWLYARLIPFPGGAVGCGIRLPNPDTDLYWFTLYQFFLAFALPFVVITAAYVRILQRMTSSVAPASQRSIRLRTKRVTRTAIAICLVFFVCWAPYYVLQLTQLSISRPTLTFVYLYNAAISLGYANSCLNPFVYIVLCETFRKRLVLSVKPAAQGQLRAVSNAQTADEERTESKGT

On to `CCOc1cccc2cc(C(C)NCC3(O)CCCCC3)oc12` (stereo not shown) [O4LE6], for which the “GPCRome agonism screen response” value at 320 non-olfactory GPCRs [1] is 0.7534 and 1.295 and 1.833 and 1.448; on 320 non-olfactory GPCRs [2] it was 1.001 and 1.011 and 0.9191 and 1.865; at 320 non-olfactory GPCRs [3] it was 0.9657 and 1.278 and 0.9923 and 0.817. The “Fold of Basal” value at 320 non-olfactory GPCRs [4] was 0.7288 and 1.095 and 0.9519 and 0.808.
